Results published in US7135292B2, “Analysis and modification of gene expression in marine invertebrate cells” (Harbor Branch Oceanographic Institution, Inc., priority 2002, dated 2006).

System: TIB-155 murine lymphocytes
Assay: Microarray analysis of gene expression, PHA-treated vs untreated murine lymphocytes
Type: cell-based
Settings: significant regulation, opposite to sponge cells
Description: Murine Cells. Following the same experimental design as described for sponge cells, TIB-155 murine lymphocytes were cultured in the American Type Culture Collection-specified growth medium (RPMI 1640 with 0.05 mM 2-mercaptoethanol and 10% fetal bovine serum).

For phytohemagglutinin [PHA], the “COUP transcription factor regulation in murine cells” value was “higher signal in the PHA-treated murine cells”.
